“And” between values parts separate entries of the source, which are not always exact repeats. Identical values can stand only once. Counter-ions that a name gives are not always drawn.

Our source for the melting point values is the Bradley open melting point set (2014).

`O[C@H]1CCCC[C@@H]1O` (relative stereo) [trans-1,2-cyclohexanediol] returned a melting point of 104 °C.

`O=S1(=O)CC=CC1` [3-sulfolene] gave a melting point of 65 °C.

`Nc1ccc(S(=O)(=O)Nc2ncccn2)cc1` [sulfadiazine]: the melting point was 252 °C and 256 °C and 254 °C.

Regarding `Cc1ccc(C(=O)c2cc(Cl)cc(Cl)c2)c(C)c1` [3,5-dichloro-2',4'-dimethylbenzophenone], the melting point was 57 °C.

`NC(=O)c1cccnc1` [nicotinamide] registered a melting point of 130 °C.

The compound `CCCCCCCCCCCCCCCCCCCCCCCCCCCCCCCCCCCCCCCCCCCC` [tetratetracontane] gave a melting point of 88 °C.

In the case of `C[C@H]1C[C@H]2[C@@H]3CCC4=CC(=O)C=C[C@]4(C)[C@@]3(F)[C@@H](O)C[C@]2(C)[C@@]1(O)C(=O)CO` [betamethasone], the melting point was determined as 232 °C.

`COc1cc(B(O)O)ccc1C` [3-methoxy-4-methylbenzeneboronic acid]: the melting point stood at 193 °C.

With `ClCC(Cl)(Cl)Cl` [1,1,1,2-tetrachloroethane], the melting point is -70 °C.

Consider `O=C(OC1OC(=O)c2ccccc21)c1ccccc1` (stereo not drawn) [3-oxo-1,3-dihydro-2-benzofuran-1-yl benzoate], for which the melting point is 128 °C.

In turn, `O=C(O)COc1ccccc1Cl` [2-chlorophenoxyacetic acid] had a melting point of 150 °C.

`CC(C)CCCC(C)C1CCC2C3CC=C4CC(OCOc5ccc(Cl)cc5)CCC4(C)C3CCC12C` (stereo not drawn) [3-[(4-chlorophenoxy)methoxy]cholest-5-ene]: the melting point was 145 °C.

In the case of `CCCC(C)=O` [Pentan-2-one], the melting point was -78 °C.

With `O=[N+]([O-])OCC(CO[N+](=O)[O-])O[N+](=O)[O-]` [Nitroglycerin], the melting point came to 13.5 °C.

`Clc1ccccc1C(c1ccccc1)(c1ccccc1)n1ccnc1` [Clotrimazole] had a melting point of 148 °C.

`CCOC(=O)CCC(=O)OCC` [diethyl_succinate]: the melting point was -20 °C.

Take `CC(=O)c1ccc(C#N)cc1` [4-acetylbenzonitrile]: the melting point was found to be 58 °C.

The compound `O=[N+]([O-])c1ccccc1` [nitrobenzene] yielded a melting point of 6 °C.

For `CC(C)(C)NCC(O)c1cc(O)cc(O)c1` (stereo not drawn) [Terbutaline], the melting point came out at 120 °C.

With `O=[N+]([O-])c1ccc(Cl)cc1` [1-Chloro-4-nitrobenzene], the melting point worked out at 83.6 °C.

Compound `c1ccc(OP(Oc2ccccc2)Oc2ccccc2)cc1` [triphenyl phosphite] had a melting point of 23 °C.

Consider `OC[C@H]1O[C@](O)(CO)[C@@H](O)[C@@H]1O` [D-fructose], for which the melting point worked out at 108 °C.

For the compound `O=C(O)C(O)c1ccccc1Cl` (stereo not drawn) [2-chloromandelic acid], the melting point stood at 83 °C.

The compound `CSC(SC)=C(C#N)C#N` [[Bis(Methylthio)Methylene]Malononitrile] displayed a melting point of 61 °C.

The compound `C[C@H]1C[C@H]2[C@@H]3CCC4=CC(=O)C=C[C@]4(C)[C@@]3(Cl)[C@@H](O)C[C@]2(C)[C@@]1(O)C(=O)CO` [Beclomethasone] returned a melting point of 118 °C.

Regarding `CCOC(=O)c1ccc([N+](=O)[O-])o1` [ethyl 5-nitro-2-furoate], the melting point was found to be 101 °C.

Regarding `Clc1cc(Cl)c(-c2ccccc2)cc1Cl` [2,4,5-Trichlorobiphenyl], the melting point was determined as 78 °C.

Consider `O=C(O)c1cccc(Cl)c1` [3-chlorobenzoic acid], for which the melting point is 157 °C.

Turning to `O=[N+]([O-])c1ccc(O)c([N+](=O)[O-])c1` [2,4-dinitrophenol], the melting point came to 108 °C.

In turn, `CCOC(=O)c1ccc(O)cc1` [ethylparaben] yielded a melting point of 116 °C.

`O=C(NC1CCN(CCc2c[nH]c3ccccc23)CC1)c1ccccc1` [indoramin] registered a melting point of 208 °C.

For the compound `CCN(CC)c1ccc(N=O)cc1` [N,N-diethyl-4-nitrosoaniline], the melting point came out at 82 °C.

For the compound `Clc1ccc(Cl)cc1` [1,4-dichlorobenzene], the melting point is 53 °C and 55 °C.

The compound `O=C1c2ccccc2CC1Br` (stereo not drawn) [2-bromo-1-indanone] had a melting point of 38 °C.

In the case of `Cc1cc2nsnc2cc1C` [5,6-dimethyl-2,1,3-benzothiadiazole], the melting point was found to be 84 °C.

In the case of `Clc1ccccc1` [chlorobenzene], the melting point was -45 °C.

`C=CC(=C)C` [isoprene]: the melting point was -146 °C.

`O=C2/N=C(\Nc1n(cnc12)COCCO)N` [acyclovir] showed a melting point of 257 °C.

The compound `C=CCBr` [allyl bromide] yielded a melting point of -119 °C.

Consider `CCCCCCCCCCCCCCCCCO` [Heptadecan-1-ol], for which the melting point stood at 57 °C.

`O=C(CBr)c1cccs1` [2-(bromoacetyl)thiophene] came in with a melting point of 31 °C.

In turn, `CC(C)(C)OC(=O)N1CCC[C@@H]1C(=O)O` [N-boc-D-proline] displayed a melting point of 134 °C.

In turn, `O=C(O)c1ccc(F)cc1O` [4-fluorosalicylic acid] showed a melting point of 188 °C.

Regarding `O=[N+]([O-])c1cc([N+](=O)[O-])c(C2CO2)cc1C1CO1` (stereo not drawn) [2,2'-(4,6-dinitrobenzene-1,3-diyl)dioxirane], the melting point is 154 °C.

For `CC12CCC(=O)CC1CCC1C2CCC2(C)C(OC=O)CCC12` (stereo not drawn) [3-oxoandrostan-17-yl formate], the melting point stood at 125 °C.

For the compound `COc1ccc([N+](=O)[O-])cc1N` [2-Methoxy-5-nitroaniline], the melting point was found to be 118 °C.

As for `C=Cc1ccc(C(=O)O)cc1` [4-vinylbenzoic acid], the melting point is 142 °C.

`NCC(=O)NCC(=O)O` [Glycylglycine] showed a melting point of 258 °C.

In turn, `O=C(O)c1ccccc1Nc1cccc(C(F)(F)F)c1` [flufenamic acid] showed a melting point of 134 °C.

In turn, `OC(c1ccccc1)(c1ccccc1)C(O)(c1ccccc1)c1ccccc1` [benzopinacol] showed a melting point of 177 °C.

As for `Clc1cc(Cl)c(Cl)cc1Cl` [1,2,4,5-tetrachlorobenzene], the melting point is 139 °C (2×) and 140 °C.

Turning to `Cc1cc(C)c(CC(=O)O)c(C)c1` [mesitylacetic acid], the melting point was determined as 169 °C.

Turning to `CC(C)(C)c1ccc(O)c(C(C)(C)C)c1` [2,4-di-tert-butylphenol], the melting point amounted to 55 °C.

Turning to `Oc1ccc(OCc2ccccc2)nc1` [2-benzyloxy-5-hydroxypyridine], the melting point is 92 °C.

For `O=C(O)c1cc2ccccc2oc1=O` [coumarin-3-carboxylic acid], the melting point turned out to be 192 °C.

On to `O=Cc1ccc2c(c1[N+](=O)[O-])C(=O)c1c(Cl)c(Cl)c(Cl)c(Cl)c1C2=O`, for which the melting point was 267 °C.

`O=[N+]([O-])c1ccc(Cl)c([N+](=O)[O-])c1` [1-chloro-2,4-dinitrobenzene] had a melting point of 53 °C.

In turn, `CCCCCCCCCC(=O)O` [decanoic acid] showed a melting point of 31 °C.

Compound `ON=Cc1ccccn1` [pyridine-2-carboxaldoxime] gave a melting point of 111 °C.

Turning to `Cc1cc(Br)ccc1N` [4-bromo-2-methylaniline], the melting point is 58 °C.

For the compound `O=C(O)C=Cc1ccco1` [b-2-Furylacrylic Acid], the melting point was found to be 133 °C.

`CN(C)C(=O)Nc1ccccc1` [Fenuron] registered a melting point of 132 °C.

In the case of `CC(=O)Nc1ccc(O)cc1` [4-acetylaminophenol], the melting point amounted to 170 °C.

Take `CC(Br)CCCBr` (stereo not drawn) [1,4-dibromopentane]: the melting point is -34 °C.

Consider `CC(O)CO` (stereo not drawn) [1,2-propanediol], for which the melting point is -60 °C.

`Nc1cccc(O)c1` [3-Aminophenol] had a melting point of 125 °C.

`Oc1c(I)cc(I)cc1I` [2,4,6-triiodophenol] displayed a melting point of 158 °C.

As to `O=C(O)c1ccccc1OP(=O)(O)O` [fosfosal], the melting point was 168 °C.

`COc1cc(O)cc(OC)c1` [3,5-dimethoxyphenol] registered a melting point of 47 °C.

Take `C#CC1(O)CC[C@H]2[C@@H]3CCc4cc(O)ccc4[C@H]3CC[C@@]21C` (stereo in doubt) [(17beta)-17-Ethynylestra-1(10),2,4-triene-3,17-diol]: the melting point was found to be 144 °C.

In the case of `N#CCc1ccc(B(O)O)cc1` [4-(cyanomethyl)benzeneboronic acid], the melting point amounted to 198 °C.

Compound `O=[N+]([O-])c1ccc(Cl)c([N+](=O)[O-])c1` [1-Chloro-2,4-dinitrobenzene] gave a melting point of 53 °C.

As for `Oc1cc(C(F)(F)F)nc2ccc(Cl)cc12` [6-chloro-4-hydroxy-2-(trifluoromethyl)quinoline], the melting point worked out at 279 °C.

On to `Cc1cccc(C(=O)CC#N)c1` [m-toluoylacetonitrile], for which the melting point is 73 °C.

As for `Cc1ccc2[nH]cnc2c1` [5-methylbenzimidazole], the melting point was determined as 115 °C.

The compound `COC(=O)c1ccc(C#N)cc1` [methyl_4-cyanobenzoate] came in with a melting point of 62 °C.

On to `CCC(C)c1ccccc1O` (stereo not drawn) [2-sec-butylphenol], for which the melting point is 10 °C.

Consider `NCCCCCC(=O)O` [Aminocaproic Acid], for which the melting point was determined as 205 °C.

In turn, `COC(=O)c1ccc(OC)cc1O` [methyl 2-hydroxy-4-methoxybenzoate] showed a melting point of 48 °C.

As to `Cc1c(C(=O)OCC(N)=O)cnn1-c1ccccc1` [OSM-S-57], the melting point stood at 154 °C.

The compound `CC(=O)Oc1ccc2c(C)cc(=O)oc2c1` [4-methylumbelliferyl acetate] came in with a melting point of 150 °C.

On to `CC(=O)/C(=N/Nc1ccc(Cl)cc1)C(=O)C(F)(F)F`, for which the melting point was 125 °C.

In turn, `Nc1ccc(Br)c(Cl)c1` [4-bromo-3-chloroaniline] had a melting point of 64 °C.

For `O=C(O)CO` [Glycol acid], the melting point was 80 °C.

With `O=C(Oc1ccccc1)Oc1ccccc1` [diphenyl carbonate], the melting point was 79 °C.

The compound `O=CN1CCOCC1` [4-formylmorpholine] came in with a melting point of 22 °C.

`COc1cc2c(c(OC)c1OC)-c1ccc(OC)c(=O)cc1[C@@H](NC(C)=O)CC2` displayed a melting point of 142 °C.

Regarding `CCCCC(CC)C(=O)O` (stereo not drawn) [2-ethylhexanoic acid], the melting point was -59 °C.
